From patent US6750228B1, “Aromatic sulfone hydroxamic acid metalloprotease inhibitor” (priority 1997, dated 2004)
Read-outs that look alike come from different tables or passages of the source.

What was measured:
Test in all cases: biochemical
MMP-2 = molecular target: T1, MMP-2 (Homo sapiens, UniProt P08253)
T1 construct: made in house; provided by Dr. Gregory Goldberg, Washington University
T1 sequence (P08253 110-660): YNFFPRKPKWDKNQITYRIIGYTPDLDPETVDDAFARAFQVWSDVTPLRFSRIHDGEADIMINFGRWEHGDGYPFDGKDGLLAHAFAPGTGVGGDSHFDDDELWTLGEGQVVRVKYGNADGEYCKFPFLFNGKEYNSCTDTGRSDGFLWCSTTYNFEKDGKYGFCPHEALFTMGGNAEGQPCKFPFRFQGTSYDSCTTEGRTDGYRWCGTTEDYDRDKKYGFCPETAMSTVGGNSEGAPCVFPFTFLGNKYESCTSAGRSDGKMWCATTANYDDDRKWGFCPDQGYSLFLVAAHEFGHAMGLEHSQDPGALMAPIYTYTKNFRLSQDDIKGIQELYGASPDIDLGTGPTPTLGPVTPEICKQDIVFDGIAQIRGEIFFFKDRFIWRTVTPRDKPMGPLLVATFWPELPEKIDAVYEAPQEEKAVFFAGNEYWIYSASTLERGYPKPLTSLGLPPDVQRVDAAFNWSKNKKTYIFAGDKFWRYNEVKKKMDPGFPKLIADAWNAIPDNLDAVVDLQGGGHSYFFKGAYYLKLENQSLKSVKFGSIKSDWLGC
Summary of the method: (§1)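 APMA- or trypsin-activated human MMPs (MMP-1 from transfected HT-1080 cells, MMP-2 from transfected cells) preincubated with inhibitor in 1% DMSO at room temperature, then 4 μM MCA-Pro-Leu-Gly-Leu-Dpa-Ala-Arg-NH2 added in Tris/NaCl/CaCl2 buffer pH 7.5. IC50 from fluorescence reduction versus inhibitor concentration.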

MMP-1 = molecular target: T2, MMP-1 (Homo sapiens, UniProt P03956); details: read-out: MMP-1 IC50
T2 construct: made in house; host or cells: transfected HT-1080 cells (provided by Dr. Harold Welgus, Washington University)
T2 sequence (P03956 100-469): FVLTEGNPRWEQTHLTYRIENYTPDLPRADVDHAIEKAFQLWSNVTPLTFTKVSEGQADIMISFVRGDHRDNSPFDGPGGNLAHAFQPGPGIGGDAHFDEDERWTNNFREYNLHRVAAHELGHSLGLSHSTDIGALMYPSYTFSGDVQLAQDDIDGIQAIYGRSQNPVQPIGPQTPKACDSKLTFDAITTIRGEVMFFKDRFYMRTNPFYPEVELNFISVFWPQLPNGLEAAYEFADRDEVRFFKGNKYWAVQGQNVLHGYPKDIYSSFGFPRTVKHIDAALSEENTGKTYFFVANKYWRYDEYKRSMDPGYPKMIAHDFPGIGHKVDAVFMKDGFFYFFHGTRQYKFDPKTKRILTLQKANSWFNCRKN
Summary of the method: as §1

MMP-13 = molecular target: T3, MMP-13 (Homo sapiens, UniProt P45452); details: read-out: MMP-13 IC50
T3 construct: made in house; host or cells: baculovirus / insect cells
Summary of the method: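 APMA- or trypsin-activated enzymes were preincubated with inhibitor for 5 min at room temperature, then the fluorogenic substrate MCA-Pro-Leu-Gly-Leu-Dpa-Ala-Arg-NH2 was added to a final 4 μM.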

[1] = recombinant human MMP-2, MCA peptide substrate 4 μM, pH 7.5, room temperature, read-out: MMP-2 IC50
[2] = recombinant human MMP-1, MCA peptide substrate 4 μM, pH 7.5, room temperature
[3] = recombinant human MMP-13, MCA peptide substrate 4 μM, pH 7.5, room temperature

Compound	IC50 (MMP-2; [1])	IC50 (MMP-1; [2])	IC50 (MMP-13; [3])	IC50 (MMP-2; read-out: MMP-2 IC50)	IC50 (MMP-1)	IC50 (MMP-13)	IC50 (MMP-2; MMP-2 IC50 (nM))
O=C(NO)C1(S(=O)(=O)c2ccc(N3CCC(Oc4ccc(Cl)cc4F)CC3)cc2)CCOCC1 [Example 641]	13.7 nM	> 10000 nM	4 nM	–	–	–	–
COCC1CCCN(c2ccc(S(=O)(=O)C3(C(=O)NO)CCOCC3)cc2)C1 (stereo not drawn) [Example 525]	700 nM	> 10000 nM	290 nM	–	–	–	–
O=C(Nc1c(Cl)cccc1Cl)N1CCC(C(=O)NO)(S(=O)(=O)c2ccc(Oc3ccc(OC(F)(F)F)cc3)cc2)CC1 [Example 355]	< 0.1 nM	7000 nM	0.4 nM	–	–	–	–
O=C(Nc1cccc(F)c1)C1CCN(c2ccc(S(=O)(=O)C3(C(=O)NO)CCOCC3)cc2)CC1 [Example 71]	270 nM	> 10000 nM	7.7 nM	–	–	–	–
O=C(Nc1ccccc1Cl)N1CCC(C(=O)NO)(S(=O)(=O)c2ccc(Oc3ccc(OC(F)(F)F)cc3)cc2)CC1 [Example 365]	0.1 nM	> 10000 nM	0.3 nM	–	–	–	–
CC1CCCCN1c1ccc(S(=O)(=O)C2(C(=O)NO)CCOCC2)cc1 (stereo not drawn) [Example 486]	4000 nM	> 10000 nM	5400 nM	–	–	–	–
O=C(NCCc1ccccc1)OC1CCN(c2ccc(S(=O)(=O)C3(C(=O)NO)CCOCC3)cc2)CC1 [Example 516]	300 nM	> 10000 nM	14.8 nM	–	–	–	–
O=C(Nc1ccc(Cl)c(Cl)c1)N1CCC(C(=O)NO)(S(=O)(=O)c2ccc(Oc3ccc(OC(F)(F)F)cc3)cc2)CC1 [Example 359]	12.2 nM	> 10000 nM	34.9 nM	–	–	–	–
O=C(NO)C1(S(=O)(=O)c2ccc(Oc3ccc(OC(F)(F)F)cc3)cc2)CCN(S(=O)(=O)Cc2ccccc2)CC1 [Example 195]	0.2 nM	> 10000 nM	1 nM	–	–	–	–
O=C(c1ccc(Cl)c(Cl)c1)C1CCN(c2ccc(S(=O)(=O)C3(C(=O)NO)CCOCC3)cc2)CC1 [Example 846]	186 nM	> 10000 nM	4.5 nM	–	–	–	–
CC1CC(C)CN(C(=O)C2CCN(c3ccc(S(=O)(=O)C4(C(=O)NO)CCN(C(=O)CN5CCCC5CO)CC4)cc3)CC2)C1 (stereo not drawn) [Example 297]	> 10000 nM	> 10000 nM	34.9 nM	–	–	–	–
O=C(c1cccc(C(F)(F)F)c1)C1CCN(c2ccc(S(=O)(=O)C3(C(=O)NO)CCOCC3)cc2)CC1 [Example 727]	240 nM	> 10000 nM	34.9 nM	–	–	–	–
CCN(CCCCC(=O)N1CCC(C(=O)NO)(S(=O)(=O)c2ccc(Oc3ccc(C(F)(F)F)cc3)cc2)CC1)Cc1ccncc1 [Example 344]	0.65 nM	> 10000 nM	2.9 nM	–	–	–	–
COc1ccc(C(=O)C2CCN(c3ccc(S(=O)(=O)C4(C(=O)NO)CCOCC4)cc3)CC2)cc1F [Example 735]	800 nM	> 10000 nM	9 nM	–	–	–	–
O=C(NO)C1(S(=O)(=O)c2ccc(N3CCCN(c4ccc(OC(F)(F)F)cc4)CC3)cc2)CCOCC1 [Example 708]	3000 nM	> 10000 nM	114 nM	–	–	–	–
Cc1ccc(C(=O)C2CCN(c3ccc(S(=O)(=O)C4(C(=O)NO)CCOCC4)cc3)CC2)cc1C [Example 737]	1280 nM	> 10000 nM	3 nM	–	–	–	–
CC1CC(C)CN(C(=O)C2CCN(c3ccc(S(=O)(=O)C4(C(=O)NO)CCN(C(=O)CN5CCC(C(=O)O)CC5)CC4)cc3)CC2)C1 (stereo not drawn) [Example 315]	> 10000 nM	> 10000 nM	420 nM	–	–	–	–

Compound	IC50 (MMP-2; [1])	IC50 (MMP-1; [2])	IC50 (MMP-13; [3])	IC50 (MMP-2; read-out: MMP-2 IC50)	IC50 (MMP-1)	IC50 (MMP-13)	IC50 (MMP-2; MMP-2 IC50 (nM))
Cn1ccnc1CN1CCC(C(=O)NO)(S(=O)(=O)c2ccc(Oc3ccc(OC(F)(F)F)cc3)cc2)CC1 [Example 386]	0.2 nM	2100 nM	0.4 nM	–	–	–	–
O=C(Nc1ccccc1OC(F)(F)F)C1CCN(c2ccc(S(=O)(=O)C3(C(=O)NO)CCOCC3)cc2)CC1 [Example 63]	2900 nM	> 10000 nM	20 nM	–	–	–	–
CC1CCCN(C(=O)C2CCN(c3ccc(S(=O)(=O)C4(C(=O)NO)CCOCC4)cc3)CC2)C1 (stereo not drawn) [Example 47]	–	–	–	6000 nM	> 10000 nM	11.4 nM	–
O=C(NO)C1(S(=O)(=O)c2ccc(N3CCC(Oc4ccc(C(F)(F)F)cc4[N+](=O)[O-])CC3)cc2)CCOCC1 [Example 571]	140 nM	> 10000 nM	28.6 nM	–	–	–	–
O=C(NO)C1(S(=O)(=O)c2ccc(N3CCC(OCc4ccc(OC(F)(F)F)cc4)CC3)cc2)CCN(C2CC2)CC1 [Example 418]	1400 nM	> 10000 nM	7 nM	–	–	–	–
O=C(NO)C1(S(=O)(=O)c2ccc(N3CCCCC3CCOCc3ccc(F)cc3)cc2)CCOCC1 (stereo not drawn) [Example 510]	> 10000 nM	> 10000 nM	7700 nM	–	–	–	–
O=C(NO)C1(S(=O)(=O)c2ccc(N3CC[C@@H](OCc4ccccc4)C3)cc2)CCOCC1 [Example 530]	60.7 nM	> 10000 nM	20 nM	–	–	–	–
COc1cccc(CO[C@@H]2CCN(c3ccc(S(=O)(=O)C4(C(=O)NO)CCN(C5CC5)CC4)cc3)C2)c1 [Example 398]	70 nM	> 10000 nM	7 nM	–	–	–	–
O=C(NO)C1(S(=O)(=O)c2ccc(N3CCC(Oc4ccc5c(c4)CCCC5)CC3)cc2)CCOCC1 [Example 483]	10.6 nM	> 10000 nM	32.6 nM	–	–	–	–
O=C(c1ccco1)N1CCC(C(=O)NO)(S(=O)(=O)c2ccc(N3CCC(OCc4ccc(F)c(C(F)(F)F)c4)CC3)cc2)CC1 [Example 433]	3500 nM	> 10000 nM	450 nM	–	–	–	–
CC(C)(C)OC1CCN(c2ccc(S(=O)(=O)C3(C(=O)NO)CCOCC3)cc2)CC1 [Example 693]	1900 nM	> 10000 nM	210 nM	–	–	–	–
COc1ccccc1C1CCN(c2ccc(S(=O)(=O)C3(C(=O)NO)CCOCC3)cc2)CC1 [Example 79]	–	–	–	–	> 10000 nM	20 nM	2000 nM
O=C(CCCCN1CCCC1)N1CCC(C(=O)NO)(S(=O)(=O)c2ccc(Oc3ccc(C(F)(F)F)cc3)cc2)CC1 [Example 341]	0.2 nM	> 10000 nM	0.6 nM	–	–	–	–
O=C(Cc1ccccc1)C1CCN(c2ccc(S(=O)(=O)C3(C(=O)NO)CCOCC3)cc2)CC1 [Example 838]	70 nM	> 10000 nM	3 nM	–	–	–	–
O=C(c1ccc(F)cc1)C1CCN(c2ccc(S(=O)(=O)C3(C(=O)NO)CCS(=O)(=O)CC3)cc2)CC1 [Example 161]	–	–	–	900 nM	> 10000 nM	32.6 nM	–
COc1cccc(NC(=O)C2CCN(c3ccc(S(=O)(=O)C4(C(=O)NO)CCOCC4)cc3)CC2)c1 [Example 72]	800 nM	> 10000 nM	13 nM	–	–	–	–
